# Measured values published in patent US11413278B2, “Compounds and methods for promoting stress resistance” (priority 2015, dated 2022).
# Where two headings read alike, the source gives them in different places.
# Key:
# C. elegans = C. elegans lifespan assays (liquid and plate); type: in vivo, Caenorhabditis elegans; conditions: for ILS at 60 µM / ILS at 66 µM: Caenorhabditis elegans; for O = Life span- extending scores in worms: score scale 0 to 2, 4 to 6 independent trials; for M = Lifespan-extending scores in worms: summary score
# [1] = tested on: phosphorylated γH2A.X and TP53BP1; experiment: DNA damage marker analysis (immuno-staining); conditions: for activity at 10 µM: Homo sapiens, WI-38, 24 h; for P = Potential DNA-damaging / R = Potential DNA damaging: human, 24 h
# Method in brief: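 WI-38 cells were cultured 24 h, then treated with compounds for 24 h; H2O2 (700 μM, 3 h) and doxorubicin (300 nM, 24 h) served as DNA-damage controls. After fixation, cells were immunostained for phospho-γH2A.X (Ser-139) and phospho-TP53BP1 (Ser-1778), counterstained with DAPI, and imaged by automated high-content microscopy.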
# WI-38 cells [2] = conditions: for No H2O2 stress treatment, at 10 uM (fold change): normalized ATP measurement; for Assay 1: H2O2-resistant: YES/NO, if NO, possibly due to repeated freezing/thawing of stocks
# FOXO3 = FOXO3 siRNA knockdown: dependency for H2O2-resistance; type: cell-based, human
# WI-38 cells [3] = experiment: Long-term effects on cell viability (5 days, ATP; morphology, PI imaging); type: cell-based; conditions: 10 μM; for Luminescence signal for ATP measurement, day-1 Average / Luminescence signal for ATP measurement, day-2 Average / Luminescence signal for ATP measurement, day-3 Average / Luminescence signal for ATP measurement, day-4 Average / Luminescence signal for ATP measurement, day-5 Average / viability at 10 µM: Batch 1; for Luminescence signal for ATP measurement, day-1 Average / Luminescence signal for ATP measurement, day-2 Average / Luminescence signal for ATP measurement, day-3 Average / Luminescence signal for ATP measurement, day-4 Average / Luminescence signal for ATP measurement, day-5 Average: n = 6, day-0 luminescence = 320956 ± 24708; for viability at 10 µM: Homo sapiens, WI-38, 120 h, DMSO ctrl = 100.0%, read-out: ATP luminescence by day-5 normalized; for Luminescence signal for ATP measurement, day-5 Average / viability at 10 µM: day-5;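 as to Luminescence signal for ATP measurement, day-2 Average: compounds at 10 µM with ATP read daily over 5 days of treatment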;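 as to Luminescence signal for ATP measurement, day-3 Average: compounds at 10 µM with ATP read daily over 5 days of treatment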;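 as to Luminescence signal for ATP measurement, day-4 Average: compounds at 10 µM with ATP read daily over 5 days of treatment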;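 as to Luminescence signal for ATP measurement, day-5 Average: compounds at 10 µM with ATP read daily over 5 days of treatment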
# [4] = 60 μM, in liquid, wild type, with FuDR, 1.0 × 10^9 bacteria/ml, read-out: relative change of mean lifespan vs control, Trial 1
# [5] = 60 μM, in liquid, wild type, with FuDR, 2.5 × 10^9 bacteria/ml, read-out: relative change of mean lifespan vs control, Trial 2
# [6] = 60 μM, on plate, CF512 temperature-sensitive sterile animals, without FuDR, 2.0 × 10^10 bacteria/ml, read-out: relative change of mean lifespan vs control, Trial 3
# [7] = Assay 2(z), 1.0 × 10^9 bacteria/ml, wild type + FuDR (2012 July), read-out: Lifespan assay in liquid
# [8] = Assay 3(aa), 2.5 × 10^9 bacteria/ml, wild type + FuDR, read-out: Lifespan assay in liquid
# [9] = Assay 4(ab), 2.0 × 10^10 bacteria/ml, CF512 worms, no FuDR, read-out: Lifespan assay on plates
# [10] = read-out: Experiment 1, H2A.X-P DNA damage foci staining (no H2O2 stress treatment), at 10 uM
# [11] = read-out: Experiment 2, H2A.X-P DNA damage foci staining (no H2O2 stress treatment), at 10 uM
# [12] = read-out: Experiment 2, H2A.X-P DNA damage foci staining (under H2O2 stress treatment), at 10 uM
# [13] = read-out: Experiment 2, TP53BP1-P DNA damage foci staining (no H2O2 stress treatment), at 10 uM
# [14] = read-out: Experiment 2, TP53BP1-P DNA damage foci staining (under H2O2 stress treatment), at 10 uM
# [15] = WI-38 cells, 10 μM, (*) = compromised ability to protect cells from H2O2, could be due to stability issue
# [16] = asterisks indicate the loss of the ability to protect cells from H2O2 over time
# [17] = read-out: Est. ED50, dose response 0.6-20 μM, H2O2-resistance
structure (smiles),measurement,setting,value
O=C(c1ccc([N+](=O)[O-])o1)N1CCc2ccccc21 [O13],"relative change of mean lifespan vs control, Trial 6 (confirmative)","C. elegans; 60 μM, on plate, temperature-sensitive sterile animals, without FuDR, 1.0 × 10^11 bacteria/ml",+15.3%
same,"relative change of mean lifespan vs control, Trial 5 (confirmative)","C. elegans; 60 μM, on plate, temperature-sensitive sterile animals, without FuDR, 2.0 × 10^10 bacteria/ml",+8.4%
same,"Lifespan, average increase",C. elegans; 4 or more trials,18.2%
same,ILS at 60 µM,C. elegans; [4],32.7%
same,ILS at 60 µM,C. elegans; [5],10.3%
same,ILS at 60 µM,"C. elegans; 60 μM, on plate, CF512 temperature-sensitive sterile animals, without FuDR, 1.0 × 10^11 bacteria/ml, read-out: relative change of mean lifespan vs control, Trial 4",15%
same,ILS at 60 µM,C. elegans; [6],27.3%
same,ILS at 66 µM,C. elegans; [7],32.7%
same,ILS at 66 µM,C. elegans; [8],10.3%
same,ILS at 66 µM,C. elegans; [9],27.3%
same,ILS at 66 µM,"C. elegans; Assay 5(ac), 1.0 × 10^11 bacteria/ml, CF512 worms, no FuDR, read-out: Lifespan assay on plates",15%
same,ILS at 66 µM,"C. elegans; Assay 6(ad), 2.0 × 10^10 bacteria/ml, CF512 worms, no FuDR, read-out: Lifespan assay on plates",8.4%
same,ILS at 66 µM,"C. elegans; Assay 7(ae), 1.0 × 10^11 bacteria/ml, CF512 worms, no FuDR, read-out: Lifespan assay on plates",15.3%
same,Extension of C. elegans' lifespan (qualitative),"C. elegans; in at least 3 to 4 trials, group range ~10% to ~50%",could extend animal's lifespan
same,O = Life span- extending scores in worms,C. elegans,2 (2 for observed in more than 2 trials)
same,M = Lifespan-extending scores in worms,C. elegans,2 (2 for observed in more than 2 trials)
same,"Lifespan, mean (FIG. 6B)","C. elegans; temperature-sensitive sterile rollers, on plate, without FuDR, 25° C. then ~22° C., control 18.4±0.4",23.4±0.4
same,Lifespan increase (FIG. 6A),"C. elegans; wild-type, in liquid, with FuDR, 20° C., ~60 μM",~33.2%
same,"Lifespan, mean±SD (FIG. 6A)","C. elegans; wild-type, in liquid, with FuDR, 20° C., ~60 μM, control 21.1±0.5",28.1±1.1
same,activity at 10 µM,[1]; [10],145%
same,activity at 10 µM,[1]; [11],98.3%
same,activity at 10 µM,[1]; [12],152%
same,activity at 10 µM,[1]; [13],238%
same,activity at 10 µM,[1]; [14],673%
same,P = Potential DNA-damaging,[1],0
same,R = Potential DNA damaging,[1],0
same,H2O2-resistant,WI-38 cells [2]; [15],YES
same,"No H2O2 stress treatment, at 10 uM (fold change)",WI-38 cells [2]; WI-38 cells,1.09 fold change
same,Assay 1: H2O2-resistant,WI-38 cells [2],YES
same,H2O2-resistant,WI-38 cells [2]; [16],YES
same,EC50,"WI-38 cells [2]; derived from dose response curves, 0.6-20 uM, H2O2-resistance of WI-38 cells",10.1 µM
same,EC50,WI-38 cells [2]; [17],10.1 µM
same,I = FOXO3-dependency for H2O2-resistance,FOXO3; score,0
same,I = FOXO3-dependency for H2O2-resistance,FOXO3; summary score,0
same,"Luminescence signal for ATP measurement, day-1 Average",WI-38 cells [3],546070
same,"Luminescence signal for ATP measurement, day-2 Average",WI-38 cells [3],704210
same,"Luminescence signal for ATP measurement, day-3 Average",WI-38 cells [3],806718
same,"Luminescence signal for ATP measurement, day-4 Average",WI-38 cells [3],947030
same,"Luminescence signal for ATP measurement, day-5 Average",WI-38 cells [3],992715
same,viability at 10 µM,WI-38 cells [3],96.7%
same,O = Potential toxicity,"WI-38 cells [3]; human, 5 days",0
same,Q = Potential toxicity,"WI-38 cells [3]; human, 5 days",0
O=C(NCc1cccnc1)/C(=C\c1ccc(Br)cc1)S(=O)(=O)c1ccccc1 [Gr-7B],ILS at 60 µM,C. elegans; [4],1.3%
same,ILS at 60 µM,C. elegans; [5],3.5%
same,ILS at 60 µM,C. elegans; [6],14.9%
same,ILS at 66 µM,C. elegans; [7],1.3%
same,ILS at 66 µM,C. elegans; [8],3.5%
same,ILS at 66 µM,C. elegans; [9],14.9%
same,O = Life span- extending scores in worms,C. elegans,0
same,M = Lifespan-extending scores in worms,C. elegans,0
same,activity at 10 µM,[1]; [10],695%
same,activity at 10 µM,[1]; [11],348%
same,activity at 10 µM,[1]; [12],74%
same,activity at 10 µM,[1]; [13],31.3%
same,activity at 10 µM,[1]; [14],4.2%
same,P = Potential DNA-damaging,[1],0
same,R = Potential DNA damaging,[1],0
same,H2O2-resistant,WI-38 cells [2]; [15],YES (*)
same,"No H2O2 stress treatment, at 10 uM (fold change)",WI-38 cells [2]; WI-38 cells,0.56 fold change
same,Assay 1: H2O2-resistant,WI-38 cells [2],YES
same,H2O2-resistant,WI-38 cells [2]; [16],YES (*)
same,EC50,WI-38 cells [2]; [17],24.7 µM
same,I = FOXO3-dependency for H2O2-resistance,FOXO3; score,0
same,I = FOXO3-dependency for H2O2-resistance,FOXO3; summary score,0
same,"Luminescence signal for ATP measurement, day-1 Average",WI-38 cells [3],311883
same,"Luminescence signal for ATP measurement, day-2 Average",WI-38 cells [3],56498
same,"Luminescence signal for ATP measurement, day-3 Average",WI-38 cells [3],40001
same,"Luminescence signal for ATP measurement, day-4 Average",WI-38 cells [3],44298
same,"Luminescence signal for ATP measurement, day-5 Average",WI-38 cells [3],40768
same,viability at 10 µM,WI-38 cells [3],4%
same,O = Potential toxicity,"WI-38 cells [3]; human, 5 days",1
same,Q = Potential toxicity,"WI-38 cells [3]; human, 5 days",1
same,Reduction of ATP content after 5 days of continuous incubation,"WI-38 cells [3]; human, 5 days",more than 40%
